Where “and” joins values, the source holds several entries; their conditions need not be identical. Identical values can stand only once. Toxic doses and inconclusive results are not listed. Cut-off read from the data, not from the text of the source: active = T/C of 150% or more; inactive = T/C below 125%.
Tested on: L1210 leukemia ip in BDF1 mice, survival T/C
Test: NCI In Vivo Anticancer Drug Screen. Data for tumor model L1210 Leukemia (intraperitoneal) in B6D2F1 (BDF1) mice
Details: endpoint: mean survival time, higher = longer survival
Procedure, shortened: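 Survival endpoint. Drug-treated group vs vehicle group, expressed as T divided by C. Tumor passaged by transplantation.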

[1] = dose: 100.0 mg/kg/injection, schedule: Q01DX009 (ip), vehicle: Klucel (hydroxypropylcellulose) (HPC)
[2] = dose: 100.0 mg/kg/injection, schedule: Q04DX003 (ip), vehicle: Klucel (hydroxypropylcellulose) (HPC)
[3] = dose: 200.0 mg/kg/injection, schedule: Q01DX009 (ip), vehicle: Klucel (hydroxypropylcellulose) (HPC)
[4] = dose: 200.0 mg/kg/injection, schedule: Q04DX003 (ip), vehicle: Klucel (hydroxypropylcellulose) (HPC)
[5] = dose: 400.0 mg/kg/injection, schedule: Q04DX003 (ip), vehicle: Klucel (hydroxypropylcellulose) (HPC)
[6] = dose: 25.0 mg/kg/injection, schedule: Q04DX002 (ip), vehicle: saline
[7] = dose: 50.0 mg/kg/injection, schedule: Q04DX002 (ip), vehicle: saline
[8] = dose: 100.0 mg/kg/injection, schedule: Q04DX002 (ip), vehicle: saline

Measured: T/C

c1ccc(N/N=C(\Sc2ccccc2)c2ccccc2)cc1
inactive: dose: 100.0 mg/kg/injection, schedule: Q04DX003 (ip), vehicle: saline with Tween-80 113 % of control | dose: 200.0 mg/kg/injection, schedule: Q04DX003 (ip), vehicle: saline with Tween-80 102 % of control | dose: 400.0 mg/kg/injection, schedule: Q04DX003 (ip), vehicle: saline with Tween-80 94 % of control

O=C(O)c1ccc(C2CC2)cc1
inactive: dose: 100.0 mg/kg/injection, schedule: Q01DX001 (ip), vehicle: other 103 % of control | dose: 100.0 mg/kg/injection, schedule: Q04DX003 (ip), vehicle: other 103 % of control | dose: 200.0 mg/kg/injection, schedule: Q01DX001 (ip), vehicle: other 108 % of control | dose: 200.0 mg/kg/injection, schedule: Q04DX003 (ip), vehicle: other 111 % of control | dose: 400.0 mg/kg/injection, schedule: Q01DX001 (ip), vehicle: other 95 % of control | dose: 400.0 mg/kg/injection, schedule: Q04DX003 (ip), vehicle: other 103 % of control

CN(C)c1ccc(P(c2ccc(N(C)C)cc2)c2ccc(N(C)C)cc2)cc1
inactive: [1] 91 % of control | [2] 95 % of control | [3] 91 % of control | [4] 95 % of control | dose: 400.0 mg/kg/injection, schedule: Q01DX009 (ip), vehicle: Klucel (hydroxypropylcellulose) (HPC) 87 % of control | [5] 95 % of control

COc1ccc([N+](=O)[O-])c2c(C)cc(=O)[nH]c12
inactive: dose: 100.0 mg/kg/injection, schedule: Q01DX001 (ip), vehicle: Klucel (hydroxypropylcellulose) (HPC) 100 % of control | [1] 104 % of control | dose: 200.0 mg/kg/injection, schedule: Q01DX001 (ip), vehicle: Klucel (hydroxypropylcellulose) (HPC) 94 % of control | [3] 97 % of control | dose: 400.0 mg/kg/injection, schedule: Q01DX001 (ip), vehicle: Klucel (hydroxypropylcellulose) (HPC) 94 % of control

CCC(=O)N(C)c1cccc(O)c1
inactive: dose: 100.0 mg/kg/injection, schedule: Q01DX001 (ip), vehicle: saline with Tween-80 114 % of control | dose: 200.0 mg/kg/injection, schedule: Q01DX001 (ip), vehicle: saline with Tween-80 94 % of control | dose: 400.0 mg/kg/injection, schedule: Q01DX001 (ip), vehicle: saline with Tween-80 97 % of control

CC(C)(C)CC(C)(C)c1ccc(OCCOCCOc2ccc([N+](=O)[O-])cc2)cc1
inactive: dose: 100.0 mg/kg/injection, schedule: Q01DX009 (ip), vehicle: saline sonified 94 % of control | dose: 200.0 mg/kg/injection, schedule: Q01DX009 (ip), vehicle: saline sonified 96 % of control | dose: 400.0 mg/kg/injection, schedule: Q01DX009 (ip), vehicle: saline sonified 94 % of control

CCN=C(c1ccc(NC(=O)c2ccc(C(=O)Nc3ccc(C(=NCC)N(CC)C(=O)NC(C)C)cc3)cc2)cc1)N(CC)C(=O)NC(C)C
inactive: dose: 6.0 mg/kg/injection, schedule: Q01DX015 (ip), vehicle: methylcellulose (MC) 89 % of control | dose: 25.0 mg/kg/injection, schedule: Q01DX015 (ip), vehicle: methylcellulose (MC) 102 % of control | dose: 37.0 mg/kg/injection, schedule: Q01DX015 (ip), vehicle: methylcellulose (MC) 96 % of control

CCOC(=O)NCC(CCN1CCCC1)(CCN1CCCC1)c1cccc2ccccc12
inactive: [6] 101 % of control | [7] 93 % of control

CC12CCC(=O)N1C(C(=O)O)CS2 (stereo not given)
inactive: [8] 91 % of control | dose: 200.0 mg/kg/injection, schedule: Q04DX002 (ip), vehicle: saline 102 % of control | dose: 400.0 mg/kg/injection, schedule: Q04DX002 (ip), vehicle: saline 98 % of control

CC(O)C(O)C(=O)NN (stereo not given)
inactive: dose: 50.0 mg/kg/injection, schedule: Q01DX009 (ip), vehicle: saline 91 % of control | dose: 100.0 mg/kg/injection, schedule: Q01DX009 (ip), vehicle: saline 98 % of control | dose: 200.0 mg/kg/injection, schedule: Q01DX009 (ip), vehicle: saline 98 % of control

CCOC(=O)CCC(NC(=O)OCc1ccccc1)C(=O)O (stereo not given)
inactive: [2] 91 % of control | [4] 89 % of control

O=C1CCC(CCl)O1 (stereo not given)
inactive: dose: 75.0 mg/kg/injection, schedule: Q01DX009 (ip), vehicle: other 100 % of control | dose: 100.0 mg/kg/injection, schedule: Q04DX002 (ip), vehicle: other 93 % of control | dose: 150.0 mg/kg/injection, schedule: Q01DX009 (ip), vehicle: other 104 % of control | dose: 200.0 mg/kg/injection, schedule: Q04DX002 (ip), vehicle: other 93 % of control | dose: 300.0 mg/kg/injection, schedule: Q01DX009 (ip), vehicle: other 96 % of control | dose: 400.0 mg/kg/injection, schedule: Q04DX002 (ip), vehicle: other 110 % of control

COc1ccc2c(c1)-c1c(ccc(OC)c1O)CC(c1ccccc1)[N+](C)(C)CC2 (stereo not given)
inactive: dose: 6.25 mg/kg/injection, schedule: Q01DX001 (ip), vehicle: saline 96 % of control | dose: 12.5 mg/kg/injection, schedule: Q01DX001 (ip), vehicle: saline 96 % of control | dose: 25.0 mg/kg/injection, schedule: Q01DX001 (ip), vehicle: saline 107 % of control

CCCCN(C)N=Nc1ccccc1C(=O)O
inactive: dose: 6.25 mg/kg/injection, schedule: Q01DX009 (ip), vehicle: other 100 % of control | dose: 12.5 mg/kg/injection, schedule: Q01DX009 (ip), vehicle: other 103 % of control | dose: 25.0 mg/kg/injection, schedule: Q01DX009 (ip), vehicle: other 108 % of control | dose: 50.0 mg/kg/injection, schedule: Q01DX009 (ip), vehicle: other 110 % of control | dose: 100.0 mg/kg/injection, schedule: Q01DX009 (ip), vehicle: other 123 % of control

COC1OCC(COC(=O)c2ccc([N+](=O)[O-])cc2)C1OC(=O)c1ccc([N+](=O)[O-])cc1 (stereo not given)
inactive: dose: 100.0 mg/kg/injection, schedule: Q01DX001 (ip), vehicle: carboxymethylcellulose (CMC) 88 % of control | dose: 200.0 mg/kg/injection, schedule: Q01DX001 (ip), vehicle: carboxymethylcellulose (CMC) 88 % of control

c1cc(CCCc2ccncc2)ccn1
inactive: [6] 108 % of control | [7] 95 % of control | [8] 95 % of control

COc1cc([N+](=O)[O-])ccc1C#N
inactive: [2] 113 % of control | [5] 96 % of control

NCCC1CCCCN1 (stereo not given)
inactive: dose: 100.0 mg/kg/injection, schedule: Q04DX003 (ip), vehicle: acetone 108 % of control | dose: 150.0 mg/kg/injection, schedule: Q01DX009 (ip), vehicle: saline 117 % of control | dose: 225.0 mg/kg/injection, schedule: Q01DX009 (ip), vehicle: saline 101 % of control | dose: 335.0 mg/kg/injection, schedule: Q01DX009 (ip), vehicle: saline 110 % of control

O=C1C=CC(=O)C2=C1C1c3ccccc3C2c2ccccc21
inactive: dose: 50.0 mg/kg/injection, schedule: Q04DX002 (ip), vehicle: saline with Tween-80 95 % of control | dose: 100.0 mg/kg/injection, schedule: Q04DX002 (ip), vehicle: saline with Tween-80 95 % of control and 98 % of control | dose: 200.0 mg/kg/injection, schedule: Q04DX002 (ip), vehicle: saline with Tween-80 92 % of control | dose: 400.0 mg/kg/injection, schedule: Q04DX002 (ip), vehicle: saline with Tween-80 114 % of control

O=C(N/N=C/c1ccc(Cl)cc1)Nc1ccccc1
inactive: [1] 90 % of control | [3] 96 % of control

Cc1ccc(N2C(=O)c3cc4ccccc4c(-c4ccccn4)c3C2=O)cc1
inactive: dose: 12.5 mg/kg/injection, schedule: Q04DX003 (ip), vehicle: Klucel (hydroxypropylcellulose) (HPC) 103 % of control | dose: 25.0 mg/kg/injection, schedule: Q04DX003 (ip), vehicle: Klucel (hydroxypropylcellulose) (HPC) 103 % of control | dose: 50.0 mg/kg/injection, schedule: Q04DX003 (ip), vehicle: Klucel (hydroxypropylcellulose) (HPC) 103 % of control | [2] 94 % of control

COc1cc2c(c(OC)c1OC)-c1ccc(SC)c(=O)cc1C(N(C)C)CC2 (stereo not given)
inactive: [3] 93 % of control

CC(C)(C)NCC1CCCC1=O (stereo not given)
inactive: dose: 100.0 mg/kg/injection, schedule: Q04DX002 (ip), vehicle: gum acacia 101 % of control | dose: 200.0 mg/kg/injection, schedule: Q04DX002 (ip), vehicle: gum acacia 105 % of control

CNc1ccccn1
inactive: dose: 75.0 mg/kg/injection, schedule: Q01DX001 (ip), vehicle: carboxymethylcellulose (CMC) 95 % of control | dose: 150.0 mg/kg/injection, schedule: Q01DX001 (ip), vehicle: carboxymethylcellulose (CMC) 97 % of control | dose: 300.0 mg/kg/injection, schedule: Q01DX001 (ip), vehicle: carboxymethylcellulose (CMC) 101 % of control

— PubChem BioAssay AID248 (DTP/NCI, 2004)
